According to ChEMBL document CHEMBL3085636, “Further optimization of plakortin pharmacophore: structurally simple 4-oxymethyl-1,2-dioxanes with promising antimalarial activity” (Eur J Med Chem, 2013):

Assays:
Plasmodium falciparum [1] = test: Antimalarial activity against chloroquine-resistant Plasmodium falciparum W2 after 72 hrs by parasite lactate dehydrogenase assay; type: functional, organism-based; conditions: W2, 72 h
Plasmodium falciparum [2] = test: Antimalarial activity against chloroquine-sensitive Plasmodium falciparum D10 after 72 hrs by parasite lactate dehydrogenase assay; type: functional, organism-based; conditions: D10, 72 h

SMILES	IC50 (Plasmodium falciparum [1]) [nM]	IC50 (Plasmodium falciparum [2]) [nM]
CCCC[C@@]1(OC)OOC(C)(C)C[C@@H]1CO	7300	17200
CCCC[C@]1(C)C[C@H](CO)[C@](CCCC)(OC)OO1	1900	5400
CCCC[C@@]1(C)C[C@H](CO)[C@](CCCC)(OC)OO1	2300	6000
CCCC[C@]1(C)C[C@H](CO)[C@@](CCCC)(OC)OO1	11200	> 30000
CCCCC1(CCCC)C[C@H](CO)[C@](CCCC)(OC)OO1	1600	4000
CCCCC1(CCCC)C[C@H](CO)[C@@](CCCC)(OC)OO1	1000	2400
COC[C@H]1CC(C)(C)OO[C@@]1(C)OC	> 30000	> 30000
COC[C@H]1CC(C)(C)OO[C@]1(C)OC	> 30000	> 30000
CCCC[C@@]1(OC)OOC(C)(C)C[C@@H]1COC	2800	8600
CCCC[C@]1(OC)OOC(C)(C)C[C@@H]1COC	> 30000	> 30000
CCCCC1(CCCC)C[C@H](COC)[C@](C)(OC)OO1	1700	–
CCCCC1(CCCC)C[C@H](COC)[C@@](C)(OC)OO1	1500	–
CCCC[C@]1(C)C[C@H](COC)[C@](CCCC)(OC)OO1	500	800
CCCC[C@@]1(C)C[C@H](COC)[C@](CCCC)(OC)OO1	700	900
CCCC[C@]1(C)C[C@H](COC)[C@@](CCCC)(OC)OO1	2000	4300
CCCC[C@@]1(C)C[C@H](COC)[C@@](CCCC)(OC)OO1	1200	2300
CCCCC1(CCCC)C[C@H](COC)[C@](CCCC)(OC)OO1	700	–
CCCCC1(CCCC)C[C@H](COC)[C@@](CCCC)(OC)OO1	1000	–
